Results published in US20230041563A1, “N-(1,3,4-OXADIAZOL-2-YL)ARYLCARBOXAMIDES OR SALTS THEREOF, PREPARATION METHODS, HERBICIDAL COMPOSITIONS AND USES THEREOF” (priority 2018, published 2023).
Like-named read-outs stand apart in the source and are kept apart here.

Columns and labels:
Format in all cases: in vivo
Digitaria sanguinalis = experiment: Weeding effect in post-emergence stage (greenhouse pot spray); conditions: for Digitaria sanguinalis (activity level): Table 2, dose 500 g a.i./ha
Text: (§1) The activity level criteria for plant damage (i.e., growth control rate) are as follows:
(§2) The above growth control rates are fresh weight control rates.
(§3) Experiment on weeding effect in post-emergence stage: monocotyledonous and dicotyledonous weed seeds (Descurainia sophia, Capsella bursa-pastoris, Abutilon theophrasti, Galium aparine, Stellaria media, Lithospermum arvense, rorippa indica, Alopecurus aequalis, Beckmannia syzigachne, Sclerochloa dura, Phleum paniculatum, Bromus japonicus, Aegilops tauschii, Phalaris arundinacea, Amaranthus retroflexus, Chenopodiaceae, Commelina communis, Sonchus arvensis, convolvulus arvensis, Cirsium setosum, Solanum nigrum, Acalypha australis, Digitaria sanguinalis, Echinochloa crusgalli, Setaria viridis, Setaria glauca, Leptochloa chinensis, Monochoria vaginalis, Sagittaria trifolia, Scirpus juncoides, Cyperus rotundus, Cyperus iria, Cyperus difformis, Fimbristylis, Portulaca oleracea, Xanthium sibiricum, Pharbitis nil) and major crop seeds (wheat, corn, rice, soybean, cotton, oilseed rape, millet, sorghum, potato, sesame, ricinus) were placed in plastic pots filled with soil, then covered with 0.5-2 cm of soil, allowed to grow in a good greenhouse environment. After 2 weeks of sowing, the test plants were treated in the 2 to 3 leaf stage. The tested compounds of the present invention were respectively dissolved in acetone, then added with Tween 80 and 1.5 liter/ha of emulsifiable concentrate of methyl oleate as synergist, diluted with a certain amount of water to obtain a solution with a certain concentration, and sprayed with a spray tower onto the plants. After the application, the plants were cultured for 3 weeks in the greenhouse, and then the experimental results of the weeding were counted. […]

Echinochloa crusgalli = experiment: as above; conditions: for Echinochloa crusgah (activity level): Table 2, dose 500 g a.i./ha
Text: as §1, §2, §3

Setaria viridis = experiment: as above; conditions: Table 3, dose 250 g a.i./ha
Text: as §1, §2, §3

Abutilon theophrasti = experiment: as above; conditions: Table 2, dose 500 g a.i./ha
Text: as §1, §2, §3

weeds = experiment: Actual control effects and combined effects of mixtures of active ingredients (i) and (ii), stem-leaf treatment, Gowing method; conditions: 20 days
Procedure: According to the actual control effect and the property of the herbicides, the balance of the formula and other factors, the optimal ratio was determined. In the calculation formula: X represents the fresh weight inhibition rate when the active ingredient (i) is used in an amount of P; and Y represents the fresh weight inhibition rate when the active ingredient (ii) is used in an amount of Q. The statistical results are shown in Tables 9-11 below.

[1] = 480 h, Echinochloa phyllopogon, (ii) 0.6 g a.i./mu, stem-leaf treatment, read-out: Control effect of (ii) alone at corresponding dose
[2] = 480 h, Echinochloa phyllopogon, (ii) 15 g a.i./mu, stem-leaf treatment, read-out: Control effect of (ii) alone at corresponding dose
[3] = Echinochloa phyllopogon, (ii) 0.6 g a.i./mu
[4] = Echinochloa phyllopogon, (ii) 15 g a.i./mu
[5] = Cyperus difformis, (ii) 30 g a.i./mu

CCC[S@@+]([O-])c1c(C(F)(F)F)ccc(C(=O)Nc2nnc(C(C)C)o2)c1F [6-8 (R-configuration)]
Digitaria sanguinahs (activity level) (Digitaria sanguinalis; Table 3, dose 250 g a.i./ha): 5 (Level 5: growth control rate is above 85%) | Echinochloa crusgali (activity level) (Echinochloa crusgalli; Table 3, dose 250 g a.i./ha): 5 (Level 5: growth control rate is above 85%) | Setaria viridis (activity level) (Setaria viridis): 5 (Level 5: growth control rate is above 85%)

CC(C)C[S+]([O-])c1c(C(F)(F)F)ccc(C(=O)Nc2nnco2)c1F (stereo not drawn) [Compound 3-20]
Echinochloa crusgah (activity level) (Echinochloa crusgalli): 5 (Level 5: growth control rate is above 85%)

Cc1nnc(NC(=O)c2ccc(C(F)(F)F)c(S(=O)(=O)C(C)(C)C)c2F)o1 [Compound 1-138]
Digitaria sanguinalis (activity level) (Digitaria sanguinalis): 5 (Level 5: growth control rate is above 85%) | Echinochloa crusgah (activity level) (Echinochloa crusgalli): 5 (Level 5: growth control rate is above 85%)

Cc1nnc(NC(=O)c2ccc(C(F)(F)F)c([S+]([O-])C3CCCCC3)c2F)o1 (stereo not drawn) [Compound 1-394]
Echinochloa crusgah (activity level) (Echinochloa crusgalli): 5 (Level 5: growth control rate is above 85%)

CCOC[S+]([O-])c1c(C(F)(F)F)ccc(C(=O)Nc2nnc(C)o2)c1F (stereo not drawn) [Compound 1-444]
Echinochloa crusgah (activity level) (Echinochloa crusgalli): 5 (Level 5: growth control rate is above 85%)

Cc1nnc(NC(=O)c2ccc(C(F)(F)F)c([S+]([O-])CCO)c2F)o1 (stereo not drawn) [Compound 1-429]
Abutilion theophrasti (activity level) (Abutilon theophrasti): 5 (Level 5: growth control rate is above 85%) | Digitaria sanguinalis (activity level) (Digitaria sanguinalis): 5 (Level 5: growth control rate is above 85%) | Echinochloa crusgah (activity level) (Echinochloa crusgalli): 5 (Level 5: growth control rate is above 85%)

CC(=O)Sc1c(C(F)(F)F)ccc(C(=O)Nc2nnc(C)o2)c1F [Compound 1-70]
Echinochloa crusgah (activity level) (Echinochloa crusgalli): 5 (Level 5: growth control rate is above 85%)

Cc1nnc(NC(=O)c2ccc(C(F)(F)F)c(SCC#N)c2F)o1 [Compound 1-69]
Echinochloa crusgah (activity level) (Echinochloa crusgalli): 5 (Level 5: growth control rate is above 85%)

Cc1nnc(NC(=O)c2ccc(C(F)(F)F)c(SC#N)c2F)o1 [Compound 1-68]
Echinochloa crusgah (activity level) (Echinochloa crusgalli): 5 (Level 5: growth control rate is above 85%)

Cc1nnc(NC(=O)c2ccc(C(F)(F)F)c(SCCF)c2F)o1 [Compound 1-48]
Digitaria sanguinalis (activity level) (Digitaria sanguinalis): 5 (Level 5: growth control rate is above 85%) | Echinochloa crusgah (activity level) (Echinochloa crusgalli): 5 (Level 5: growth control rate is above 85%)

CC(C)=C1OC(=O)N(c2cc(OC3CCCC3)c(Cl)cc2F)C1=O [Pentoxazone]
Control effect of (ii) alone at corresponding dose (weeds; Monochoria vaginalis, (ii) 10 g a.i./mu): 43.6% | pest or weed control at […] (weeds; Pontederia vaginalis, 480 h, Monochoria vaginalis, (ii) 0.5 g a.i./mu, read-out: Control effect of (ii) alone at corresponding dose): 6.4% | pest or weed control at 150 g/ha (weeds; Pontederia vaginalis, 480 h, Monochoria vaginalis, (ii) 10 g a.i./mu, stem-leaf treatment, read-out: Control effect of (ii) alone at corresponding dose): 43.6%

CCNc1nc(NCC)nc(SC)n1 [Simetryn]
pest or weed control at 9 g/ha (weeds; [1]): 20.8% | pest or weed control at […] (weeds; [2]): 45.3% | Control effect of (ii) alone at corresponding dose (weeds; [3]): 20.8% | Control effect of (ii) alone at corresponding dose (weeds; [4]): 45.3%

C#CCSc1c(C(F)(F)F)ccc(C(=O)Nc2nnc(C)o2)c1F [Compound 1-43]
Echinochloa crusgah (activity level) (Echinochloa crusgalli): 5 (Level 5: growth control rate is above 85%)

Cc1ccc(NC(=O)N(C)C)cc1Cl [Chlortoluron]
pest or weed control at 9 g/ha (weeds; [1]): 18.3% | pest or weed control at […] (weeds; [2]): 57.6% | Control effect of (ii) alone at corresponding dose (weeds; [3]): 18.3% | Control effect of (ii) alone at corresponding dose (weeds; [4]): 57.6%

CCC(CC)Nc1c([N+](=O)[O-])cc(C)c(C)c1[N+](=O)[O-] [Pendimethalin]
pest or weed control at 27 g/ha (weeds; 480 h, Cyperus difformis, (ii) 1.8 g a.i./mu, read-out: Control effect of (ii) alone at corresponding dose): 6.3% | pest or weed control at 450 g/ha (weeds; 480 h, Cyperus difformis, (ii) 30 g a.i./mu, stem-leaf treatment, read-out: Control effect of (ii) alone at corresponding dose): 40.3% | Control effect of (ii) alone at corresponding dose (weeds; [5]): 40.3%

CC1(C)CON(Cc2ccccc2Cl)C1=O [Clomazone]
pest or weed control at 45 g/ha (weeds; Dinebra chinensis, 480 h, Leptochloa chinensis, (ii) 3 g a.i./mu, read-out: Control effect of (ii) alone at corresponding dose): 16.8% | pest or weed control at […] (weeds; Dinebra chinensis, 480 h, Leptochloa chinensis, (ii) 15 g a.i./mu, stem-leaf treatment, read-out: Control effect of (ii) alone at corresponding dose): 53.6% | Control effect of (ii) alone at corresponding dose (weeds; Leptochloa chinensis, (ii) 15 g a.i./mu): 53.6%

Cc1nnc(NC(=O)c2ccc(C(F)(F)F)c([S+]([O-])CCCO)c2F)o1 (stereo not drawn) [Compound 1-430]
Abutilion theophrasti (activity level) (Abutilon theophrasti): 5 (Level 5: growth control rate is above 85%) | Digitaria sanguinalis (activity level) (Digitaria sanguinalis): 5 (Level 5: growth control rate is above 85%) | Echinochloa crusgah (activity level) (Echinochloa crusgalli): 5 (Level 5: growth control rate is above 85%)

CS(=O)(=O)c1ccc(C(=O)C2C(=O)CCCC2=O)c([N+](=O)[O-])c1 [Mesotrione]
pest or weed control at 9 g/ha (weeds; 480 h, Cyperus difformis, (ii) 0.6 g a.i./mu, read-out: Control effect of (ii) alone at corresponding dose): 29.5% | pest or weed control at 15 g/ha (weeds; 480 h, Cyperus difformis, (ii) 1 g a.i./mu, stem-leaf treatment, read-out: Control effect of (ii) alone at corresponding dose): 50.4% | Control effect of (ii) alone at corresponding dose (weeds; Cyperus difformis, (ii) 1 g a.i./mu): 50.4%

CC1=C(c2ccccc2)C(=O)N(C(C)(C)c2cc(Cl)cc(Cl)c2)CO1 [Oxaziclomefone]
pest or weed control at 9 g/ha (weeds; [1]): 12.5% | pest or weed control at 15 g/ha (weeds; 480 h, Echinochloa phyllopogon, (ii) 1 g a.i./mu, stem-leaf treatment, read-out: Control effect of (ii) alone at corresponding dose): 18.7% | Control effect of (ii) alone at corresponding dose (weeds; [3]): 12.5% | Control effect of (ii) alone at corresponding dose (weeds; Echinochloa phyllopogon, (ii) 1 g a.i./mu): 18.7%

CCN(CC)C(=O)SCc1ccc(Cl)cc1 [Benthiocarb]
Control effect of (ii) alone at corresponding dose (weeds; Cyperus difformis, (ii) 3 g a.i./mu): 15.2% | Control effect of (ii) alone at corresponding dose (weeds; Cyperus difformis, (ii) 3 g a.i./mu, stem-leaf treatment): 15.2% | Control effect of (ii) alone at corresponding dose (weeds; [5]): 50.3%

CCN(C(=O)n1nnn(-c2ccccc2Cl)c1=O)C1CCCCC1 [Fentrazamide]
Control effect of (ii) alone at corresponding dose (weeds; Monochoria vaginalis, (ii) 3 g a.i./mu): 30.2% | pest or weed control at […] (weeds; Pontederia vaginalis, 480 h, Monochoria vaginalis, (ii) 1.5 g a.i./mu, read-out: Control effect of (ii) alone at corresponding dose): 18.3% | pest or weed control at 45 g/ha (weeds; Pontederia vaginalis, 480 h, Monochoria vaginalis, (ii) 3 g a.i./mu, stem-leaf treatment, read-out: Control effect of (ii) alone at corresponding dose): 30.2%

CCCOCCN(C(=O)CCl)c1c(CC)cccc1CC [Pretilachlor]
pest or weed control at 45 g/ha (weeds; 480 h, Echinochloa phyllopogon, (ii) 3 g a.i./mu, stem-leaf treatment, read-out: Control effect of (ii) alone at corresponding dose): 15.2% | pest or weed control at […] (weeds; [2]): 43.2% | Control effect of (ii) alone at corresponding dose (weeds; Echinochloa phyllopogon, (ii) 3 g a.i./mu): 15.2% | Control effect of (ii) alone at corresponding dose (weeds; [4]): 43.2%

CCC(Oc1ccc(F)c(C(F)(F)F)c1)C(=O)NCc1ccccc1 (stereo not drawn) [Beflubutamid]
Control effect of (ii) alone at corresponding dose (weeds; Monochoria vaginalis, (ii) 1.5 g a.i./mu): 15.3% | Control effect of (ii) alone at corresponding dose (weeds; Monochoria vaginalis, (ii) 5 g a.i./mu): 40.3% | Control effect of (ii) alone at corresponding dose (weeds; Monochoria vaginalis, (ii) 5 g a.i./mu, stem-leaf treatment): 40.3%

O=C(O)c1nc(Cl)ccc1Cl [Clopyralid]
Control effect of (ii) alone at corresponding dose (weeds; Monochoria vaginalis, (ii) 1 g a.i./mu): 49.6% | pest or weed control at 15 g/ha (weeds; Pontederia vaginalis, 480 h, Monochoria vaginalis, (ii) 1 g a.i./mu, stem-leaf treatment, read-out: Control effect of (ii) alone at corresponding dose): 49.6% | pest or weed control at 18 g/ha (weeds; Pontederia vaginalis, 480 h, Monochoria vaginalis, (ii) 1.2 g a.i./mu, read-out: Control effect of (ii) alone at corresponding dose): 56.3%
